In patent US20150216794A1, “METHODS OF TREATING PAIN ASSOCIATED WITH OSTEOARTHRITIS OF A JOINT WITH A TOPICAL FORMULATION OF A SPIRO-OXINDOLE COMPOUND” (IVAX International GmbH, priority 2014, published 2015):
Values joined by “and” are separate entries in the source; they are usually repeats but may differ in a detail not shown here. Equal entries are not always repeated.

Legend:
[1] = system: complete Freund's adjuvant (CFA) model of inflammatory pain; assay: CFA model of inflammatory pain; format: in vivo, rat; conditions: topical, dose-response; model not restated (follows CFA paragraph)
[2] = minipig repeated dermal dosing: spiro-oxindole compound in plasma (LC-MS/MS); format: in vivo, Göttingen minipig; conditions: minipigs
Description: The study was carried out on minipigs to obtain information on plasma pharmacokinetics, tissue distribution and accumulation, excretion and metabolic profile of the spiro-oxindole compound after daily dermal administration of a pharmaceutical composition of the invention for 20 consecutive days followed by a single dose of [^14C]-spiro-oxindole compound Day 21.
Midazolam was administered on Days 0 and 20 to 3 male minipigs by bolus intravenous injection at a dose level 0.5 mg/kg.
The [^14C]-spiro-oxindole composition was prepared as follows:
Dosages of test formulations were applied with foil and spread using nitrile gloves to form a thin uniform layer to the treatment site.

[3] = domestic pig joint penetration study: concentration in plasma; format: in vivo; conditions: for concentration in plasma, individual animals: 3.0 μL/cm^2 bid
Description: (§1) This study was conducted to evaluate the joint penetration, systemic plasma exposure and tissue distribution of the spiro-oxindole compound in domestic pigs following topical administration of a pharmaceutical composition utilized in the methods of the invention. Fifteen female pigs were used in this study with three pigs in each group. Beginning on Day 1, a pharmaceutical composition of the invention was topically applied to the left radiocarpal joint (carpus) and tibiotarsal joint (hock) twice daily (bid) for 17 days (34 applications) for Groups 1-4 and once daily (qd) for 17 days (17 applications) for Group 5. Pre-dose blood samples (prior to morning dosing) was collected on Days 2, 7, 10, 14 and 17. A full pharmacokinetic sampling was performed on Day 17 (post am dosing) at the following time points: 1, 2, 4, 8 and 12 hr. On the day of necropsy, Day 18, blood was collected prior to euthanasia, each pig was humanely euthanized and dorsal skin and muscle, liver, kidney, heart, lung, brain, intestine, fat, ovaries, urinary bladder, sciatic nerve, and skin, muscle, synovial membrane, and synovial fluid from all 4 joints (2 treated, left carpus and hock, and 2 untreated, right carpus and hock) was collected.
(§2) The dose volume (μL/cm^2) for the test pharmaceutical compositions was 3.0 μL/cm^2 for Groups 1, 2, 3 and 5 and 1.0 μL/cm^2 for Group 4.
Approximately 2 mL of whole blood was collected prior to the morning dose administration on Days 2, 7, 10, 14 and 17. A full pharmacokinetic profile sampling was performed on Day 17 after the morning dose administration at the following time points: 1, 2, 4, 8 and 12 hr. On the day of necropsy, Day 18, blood was collected prior to euthanasia.

[4] = domestic pig joint penetration study: concentration in liver tissue; format: in vivo
Description: as §1, §2
The following tissue samples were collected after euthanasia: • Dorsal skin and muscle (from the mid-back) • Liver—Left Medial Lobe • Kidney—Right • Heart • Lung—Right diaphragmatic lobe • Brain—Right cerebral hemisphere • Intestine—mid-jejunum • Duodenum (10-15 cm length) from all 6 animals in Groups 1 and 2 • Fat • Ovary—Right • Urinary bladder • Sciatic nerve from both legs • Skin, muscle underlying site of administration and synovial membrane of all 4 joints (treated left carpus and hock and untreated right carpus and hock)

[5] = previous topical clinical studies (PHN and EM) overall; conditions: human, in vivo
Description: Although not previously studied in patients with osteoarthritis, a topical formulation of the spiro-oxindole compound of the invention has been tested in clinical studies and was well tolerated by patients with postherpetic neuralgia (PHN) and erythromelalgia.
In general, the maximal concentrations of the spiro-oxindole compound following topical application are determined under “maximal use conditions,” taking into consideration such factors as ointment strength, application volume, application surface area, and frequency and duration of dosing.
Nevertheless, the exposure level anticipated in this study is expected to be higher than that observed in any single patient population administered a therapeutic dose a topical pharmaceutical composition of the invention. This study is therefore intended to help in the selection of a topical dose and regimen of a topical pharmaceutical composition of the invention.

O=C1N(Cc2ccc(C(F)(F)F)o2)c2ccccc2[C@]12COc1cc3c(cc12)OCO3 [spiro-oxindole compound, (S)-1′-{[5-(trifluoromethyl)furan-2-yl]methyl}spiro[furo[2,3-f][1,3]benzodioxole-7,3′-indol]-2′(1′H)one]
dose with greatest effect (highest dose tested) [1]: 8 % (w/w) | minimum effective dose [1]: 2 % (w/w) | Cmax ([2]; male, Göttingen, minipig, plasma, topical or ocular, 70 mg spiro-oxindole compound equivalents ointment/kg, 21 days repeated dermal dosing, read-out: mean maximum observed concentration [Cmax]): 11.7 ng/mL | time post dose at which mean plasma concentrations were maximal ([2]; after last dose (Day 21)): 8 h | apparent steady state achieved ([2]; repeated dermal dosing): between Days 14 and 21 | systemic exposure overall (in words) ([2]; repeated dermal dosing): low systemic exposure | concentration in plasma, individual animals ([3]; G1 (#1-#3): 2% composition, Day 2 Before dosing): 0.34 ng/mL | concentration in plasma, individual animals ([3]; G1 (#1-#3): 2% composition, Day 7 Before dosing): 0.97 ng/mL | concentration in plasma, individual animals ([3]; G1 (#1-#3): 2% composition, Day 10 Before dosing): 1.54 ng/mL | concentration in plasma, individual animals ([3]; G1 (#1-#3): 2% composition, Day 14 Before dosing): 1.10 ng/mL | concentration in plasma, individual animals ([3]; G1 (#1-#3): 2% composition, Day 17 1 hour after dosing): 1.21 ng/mL | concentration in plasma, individual animals ([3]; G1 (#1-#3): 2% composition, Day 17 2 hour after dosing): 1.07 ng/mL | concentration in plasma, individual animals ([3]; G1 (#1-#3): 2% composition, Day 17 4 hour after dosing): 1.04 ng/mL | concentration in plasma, individual animals ([3]; G1 (#1-#3): 2% composition, Day 17 8 hour after dosing): 1.30 ng/mL | concentration in plasma, individual animals ([3]; G1 (#1-#3): 2% composition, Day 17 12 hour after dosing): 11.38 ng/mL | concentration in plasma, individual animals ([3]; G1 (#1-#3): 2% composition, Day 17 Before dosing): 2.70 ng/mL | concentration in plasma, individual animals ([3]; G1 (#1-#3): 2% composition, Day 18): 1.60 ng/mL | concentration in plasma, individual animals ([3]; G2 (#4-#6): 4% composition, Day 2 Before dosing): 0.84 ng/mL and 0.86 ng/mL | concentration in plasma, individual animals ([3]; G2 (#4-#6): 4% composition, Day 7 Before dosing): 1.73 ng/mL | concentration in plasma, individual animals ([3]; G2 (#4-#6): 4% composition, Day 10 Before dosing): 1.79 ng/mL | concentration in plasma, individual animals ([3]; G2 (#4-#6): 4% composition, Day 14 Before dosing): 2.47 ng/mL | concentration in plasma, individual animals ([3]; G2 (#4-#6): 4% composition, Day 17 1 hour after dosing): 2.47 ng/mL | concentration in plasma, individual animals ([3]; G2 (#4-#6): 4% composition, Day 17 2 hour after dosing): 3.47 ng/mL | concentration in plasma, individual animals ([3]; G2 (#4-#6): 4% composition, Day 17 4 hour after dosing): 2.72 ng/mL | concentration in plasma, individual animals ([3]; G2 (#4-#6): 4% composition, Day 17 8 hour after dosing): 1.94 ng/mL | concentration in plasma, individual animals ([3]; G2 (#4-#6): 4% composition, Day 17 12 hour after dosing): 12.17 ng/mL and 15.72 ng/mL | concentration in plasma, individual animals ([3]; G2 (#4-#6): 4% composition, Day 17 Before dosing): 3.25 ng/mL | concentration in plasma, individual animals ([3]; G2 (#4-#6): 4% composition, Day 18): 5.41 ng/mL and 2.83 ng/mL | plasma concentration / systemic exposure (in words) ([3]; domestic pig, topical administration to a joint): nanomolar | concentration in liver tissue, individual animals ([4]; G1 (#1-#3): 2% composition, 3.0 μL/cm^2 bid 17 days): 17.0 ng/g and 2.2 ng/g and 14.0 ng/g | concentration in liver tissue, individual animals ([4]; G2 (#4-#6): 4% composition, 3.0 μL/cm^2 bid 17 days): 49.1 ng/g and 29.3 ng/g | concentration in liver tissue, individual animals ([4]; G3 (#7-#9): 8% composition, 3.0 μL/cm^2 bid 17 days): 47.2 ng/g and 48.2 ng/g and 21.6 ng/g | concentration in liver tissue, individual animals ([4]; G4 (#10-#12): 8% composition, 1.0 μL/cm^2 bid 17 days): 0.0 ng/g and 39.1 ng/g and 13.0 ng/g | concentration in liver tissue, individual animals ([4]; G5 (#13-#15): 8% composition, 3.0 μL/cm^2 qd 17 days): 3.6 ng/g and 25.1 ng/g and 0.0 ng/g | highest observed individual plasma concentration [5]: 14.5 ng/mL
